This is an account of results in patent US20230242585A1, “IMMUNOMODULATORS” (Bristol-Myers Squibb Company, priority 2020, published 2023).

Starred links: 1 amine or outer side, 2 acyl side, 3 side chain; linkers in the order of their positions; H or OH if unused. Positions of bridges follow the written chain, without caps; N, C: chain ends. Non-standard residues stand in square brackets, D forms with d. Residues, ends and D or L forms follow the SMILES beside them. X39 = O=C([C@H](CNC[C@H](O)[C@@H](O)[C@H](O)C(O)CO[C@H]1O[C@H](CO)[C@H](O)[C@H](O)[C@H]1O)N[*:1])[*:2]; X41 = O=C([C@H](CCNC1[C@@H](O)[C@@H](O)[C@@H](O)[C@H](O)[C@H]1O)N[*:1])[*:2]; X40 = O=C([C@H](CNC1[C@@H](O)[C@@H](O)[C@@H](O)[C@H](O)[C@H]1O)N[*:1])[*:2]; X50 = O=C([C@H](CNC[C@@H](O)[C@@H](O)[C@H](O)[C@H](O)C(O)CO)N[*:1])[*:2]; X44 = O=C([C@H](CCNC[C@@H](O)[C@H](O)[C@@H](O)[C@@H](O)CO)N[*:1])[*:2]; X43 = O=C([C@H](CNC[C@@H](O)[C@H](O)[C@@H](O)[C@@H](O)CO)N[*:1])[*:2]; X9 = O=C([C@H](CCNC[C@@H](O)[C@@H](O)[C@@H](O)[C@H](O)CO)N[*:1])[*:2]; X59 = O=C([C@H](CCNC[C@H](O)[C@@H](O)[C@H](O)[C@H](O)CO)N[*:1])[*:2]; X8 = O=C([C@H](CNC[C@@H](O)[C@@H](O)[C@@H](O)[C@H](O)CO)N[*:1])[*:2]; X58 = O=C([C@H](CNC[C@H](O)[C@@H](O)[C@H](O)[C@H](O)CO)N[*:1])[*:2]; Trp(1-CH2COOH) = N[C@@H](Cc1cn(CC(=O)O)c2ccccc12)C(=O)O; Hyp = O=C(O)[C@@H]1C[C@@H](O)CN1; NMeNle = CCCC[C@H](NC)C(=O)O; NMeA = CN[C@@H](C)C(=O)O; Dab = NCC[C@H](N)C(=O)O

As a reminder, the IC50 is the concentration needed to halve the response being measured. Lower therefore signals greater potency.

In this test the target is T1, PD-1/PD-L1 (Homo sapiens, UniProt Q9NZQ7).
T1 construct: TVMV protease site (linker) (C); made in house; host or cells: HEK293T cells
T1 sequence (Q9NZQ7 18-239): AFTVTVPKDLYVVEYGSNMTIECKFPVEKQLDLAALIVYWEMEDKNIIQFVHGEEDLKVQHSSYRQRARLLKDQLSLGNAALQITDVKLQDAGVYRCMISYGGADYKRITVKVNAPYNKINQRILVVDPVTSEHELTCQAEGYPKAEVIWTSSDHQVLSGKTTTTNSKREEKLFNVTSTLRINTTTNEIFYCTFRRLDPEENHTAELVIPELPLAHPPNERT
Kind of test: PD-1/PD-L1 Homogenous Time-Resolved Fluorescence (HTRF) binding assay. The conditions noted are these: PD-L1-His 10 nM, PD-1-Ig 20 nM. The procedure, abridged:
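Compounds preincubated 15 min with PD-L1-His (residues 18-239, 10 nM) in dPBS with 0.1% BSA, 0.05% Tween-20, then PD-1-Ig (residues 25-167, 20 nM) for 15 min. Eu-cryptate anti-Ig (1 nM) and APC anti-His (20 nM) equilibrated 30 min; 665/620 nm ratio read, IC50 derived.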
(In general: In TR-FRET formats the signal depends on donor and acceptor labels being close together.)
`CCCC[C@H]1C(=O)N(C)[C@@H](CCCC)C(=O)N[C@@H](CC(C)C)C(=O)N[C@H](C(=O)NCC(N)=O)CSCC(=O)N[C@@H](Cc2ccc(O)cc2)C(=O)N(C)[C@@H](C)C(=O)N[C@@H](CC(N)=O)C(=O)N2CCC[C@H]2C(=O)N[C@@H](CNC[C@@H](O)[C@@H](O)[C@H](O)[C@H](O)C(O)CO)C(=O)N[C@@H](CC(C)C)C(=O)N2C[C@H](O)C[C@H]2C(=O)N[C@@H](Cc2c[nH]c3ccccc23)C(=O)N[C@@H](CCN)C(=O)N[C@@H](Cc2cn(CC(=O)O)c3ccccc23)C(=O)N1C` (stereo partly drawn) [Example 2031] ({CH2CO}-Y[NMeA]NP[X50]L[Hyp]W[Dab][Trp(1-CH2COOH)][NMeNle][NMeNle]LCG-NH2; thioether N-14) returned an IC50 of 9.1 nM.

In turn, `CCCC[C@H]1C(=O)N(C)[C@@H](CCCC)C(=O)N[C@@H](CC(C)C)C(=O)N[C@H](C(=O)NCC(N)=O)CSCC(=O)N[C@@H](Cc2ccc(O)cc2)C(=O)N(C)[C@@H](C)C(=O)N[C@@H](CC(N)=O)C(=O)N2CCC[C@H]2C(=O)N[C@@H](CNC[C@H](O)[C@@H](O)[C@H](O)[C@H](O)CO)C(=O)N[C@@H](CC(C)C)C(=O)N2C[C@H](O)C[C@H]2C(=O)N[C@@H](Cc2c[nH]c3ccccc23)C(=O)N[C@@H](CCNC[C@H](O)[C@@H](O)[C@H](O)[C@H](O)CO)C(=O)N[C@@H](Cc2cn(CC(=O)O)c3ccccc23)C(=O)N1C` [Example 2032] ({CH2CO}-Y[NMeA]NP[X58]L[Hyp]W[X59][Trp(1-CH2COOH)][NMeNle][NMeNle]LCG-NH2; thioether N-14) came in with an IC50 of 5.3 nM.

The compound `CCCC[C@H]1C(=O)N(C)[C@@H](CCCC)C(=O)N[C@@H](CC(C)C)C(=O)N[C@H](C(=O)NCC(N)=O)CSCC(=O)N[C@@H](Cc2ccc(O)cc2)C(=O)N(C)[C@@H](C)C(=O)N[C@@H](CC(N)=O)C(=O)N2CCC[C@H]2C(=O)N[C@@H](CNC2[C@@H](O)[C@@H](O)[C@@H](O)[C@H](O)[C@H]2O)C(=O)N[C@@H](CC(C)C)C(=O)N2C[C@H](O)C[C@H]2C(=O)N[C@@H](Cc2c[nH]c3ccccc23)C(=O)N[C@@H](CCNC2[C@@H](O)[C@@H](O)[C@@H](O)[C@H](O)[C@H]2O)C(=O)N[C@@H](Cc2cn(CC(=O)O)c3ccccc23)C(=O)N1C` (stereo partly drawn) [Example 2033] ({CH2CO}-Y[NMeA]NP[X40]L[Hyp]W[X41][Trp(1-CH2COOH)][NMeNle][NMeNle]LCG-NH2; thioether N-14) registered an IC50 of 8.8 nM.

As to `CCCC[C@H]1C(=O)N(C)[C@@H](CCCC)C(=O)N[C@@H](CC(C)C)C(=O)N[C@H](C(=O)NCC(N)=O)CSCC(=O)N[C@@H](Cc2ccc(O)cc2)C(=O)N(C)[C@@H](C)C(=O)N[C@@H](CC(N)=O)C(=O)N2CCC[C@H]2C(=O)N[C@@H](CNC[C@@H](O)[C@H](O)[C@@H](O)[C@@H](O)CO)C(=O)N[C@@H](CC(C)C)C(=O)N2C[C@H](O)C[C@H]2C(=O)N[C@@H](Cc2c[nH]c3ccccc23)C(=O)N[C@@H](CCNC[C@@H](O)[C@H](O)[C@@H](O)[C@@H](O)CO)C(=O)N[C@@H](Cc2cn(CC(=O)O)c3ccccc23)C(=O)N1C` [Example 2034] ({CH2CO}-Y[NMeA]NP[X43]L[Hyp]W[X44][Trp(1-CH2COOH)][NMeNle][NMeNle]LCG-NH2; thioether N-14), the IC50 is 2.7 nM.

Compound `CCCC[C@H]1C(=O)N(C)[C@@H](CCCC)C(=O)N[C@@H](CC(C)C)C(=O)N[C@H](C(=O)NCC(N)=O)CSCC(=O)N[C@@H](Cc2ccc(O)cc2)C(=O)N(C)[C@@H](C)C(=O)N[C@@H](CC(N)=O)C(=O)N2CCC[C@H]2C(=O)N[C@@H](CNC[C@@H](O)[C@@H](O)[C@@H](O)[C@H](O)CO)C(=O)N[C@@H](CC(C)C)C(=O)N2C[C@H](O)C[C@H]2C(=O)N[C@@H](Cc2c[nH]c3ccccc23)C(=O)N[C@@H](CCNC[C@@H](O)[C@@H](O)[C@@H](O)[C@H](O)CO)C(=O)N[C@@H](Cc2cn(CC(=O)O)c3ccccc23)C(=O)N1C` [Example 2036] ({CH2CO}-Y[NMeA]NP[X8]L[Hyp]W[X9][Trp(1-CH2COOH)][NMeNle][NMeNle]LCG-NH2; thioether N-14) showed an IC50 of 4.9 nM.

In turn, `CCCC[C@H]1C(=O)N(C)[C@@H](CCCC)C(=O)N[C@@H](CC(C)C)C(=O)N[C@H](C(=O)NCC(N)=O)CSCC(=O)N[C@@H](Cc2ccc(O)cc2)C(=O)N(C)[C@@H](C)C(=O)N[C@@H](CC(N)=O)C(=O)N2CCC[C@H]2C(=O)N[C@@H](CNC[C@H](O)[C@@H](O)[C@H](O)C(O)CO[C@H]2O[C@H](CO)[C@H](O)[C@H](O)[C@H]2O)C(=O)N[C@@H](CC(C)C)C(=O)N2C[C@H](O)C[C@H]2C(=O)N[C@@H](Cc2c[nH]c3ccccc23)C(=O)N[C@@H](CCN)C(=O)N[C@@H](Cc2cn(CC(=O)O)c3ccccc23)C(=O)N1C` (stereo partly drawn) [Example 2037] ({CH2CO}-Y[NMeA]NP[X39]L[Hyp]W[Dab][Trp(1-CH2COOH)][NMeNle][NMeNle]LCG-NH2; thioether N-14) registered an IC50 of 11 nM.
